Data: patent publication US20210290629A1 (priority 2016, published 2021)
Like-named read-outs stand apart in the source and are kept apart here.

Tests used:
[1] = tested on: GFP-expressing Mycobacterium tuberculosis H37Rv; assay type: cell-based
[2] = tested on: human monocyte-derived macrophages (hMDM); experiment: Cell viability analysis by impedance measurements (xCELLigence); assay type: cell-based; details: FIG. 5 and 6, range of tested concentrations (30, 100 and 300 nM), 120 h
Method: 3) Cell Viability Analysis by Impedance Measurements
Real-time viability assays (5×10^4 human monocyte derived macrophages/well) were performed with the xCELLigence System (Acea Biosciences Inc.) (Otero-Gonzalez L et al., Environ Sci Technol. 2012; 46(18):10271-8). Impedance measurement was carried out using plates with incorporated sensor array (E-Plate) and the Real-Time Cell Analyzer (RTCA) SP instrument for 120 h. After equilibration of the cells in RPMI 1640 with 10% FCS and 4 mM L-glutamine for 3 h, cells incubated in the absence (medium) or the presence of the ACC2 inhibitor (30, 100 and 300 nM) and staurosporine (1 μg/ml). Data obtained was analyzed using the RTCA Software 2.0 (Acea Biosciences Inc.) see FIGS. 5 and 6.

[3] = tested on: Mycobacterium tuberculosis (Mtb H37Rv) in human monocyte-derived macrophages (hMDM); assay type: cell-based; details: seven days; for intracellular growth of Mycobacterium tuberculosis in primary human macrophages (CFU): 300 nM
M. tuberculosis AccD5 = M. tuberculosis AccD5 (Mycobacterium tuberculosis, UniProt P9WQH7); details: literature, Lin T-W. et al., PNAS 2006; cited from earlier work
Chain of M. tuberculosis AccD5 (P9WQH7 whole entry): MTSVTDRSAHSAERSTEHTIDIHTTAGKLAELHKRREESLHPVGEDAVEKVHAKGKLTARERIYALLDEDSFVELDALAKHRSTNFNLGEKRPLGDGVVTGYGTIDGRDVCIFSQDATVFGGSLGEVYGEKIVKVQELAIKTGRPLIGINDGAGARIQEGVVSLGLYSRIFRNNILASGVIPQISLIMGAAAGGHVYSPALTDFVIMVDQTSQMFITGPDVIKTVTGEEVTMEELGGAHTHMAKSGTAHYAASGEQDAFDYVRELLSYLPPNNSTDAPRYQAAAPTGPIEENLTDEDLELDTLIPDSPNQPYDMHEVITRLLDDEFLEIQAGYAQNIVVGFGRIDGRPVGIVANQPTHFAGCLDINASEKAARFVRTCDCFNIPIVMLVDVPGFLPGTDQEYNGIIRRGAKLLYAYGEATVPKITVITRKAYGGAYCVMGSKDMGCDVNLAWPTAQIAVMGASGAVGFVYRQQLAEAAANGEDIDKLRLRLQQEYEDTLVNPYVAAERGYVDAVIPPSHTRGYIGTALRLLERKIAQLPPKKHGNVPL
Chain of M. tuberculosis AccD5 (P9WPQ3 whole entry, further chain): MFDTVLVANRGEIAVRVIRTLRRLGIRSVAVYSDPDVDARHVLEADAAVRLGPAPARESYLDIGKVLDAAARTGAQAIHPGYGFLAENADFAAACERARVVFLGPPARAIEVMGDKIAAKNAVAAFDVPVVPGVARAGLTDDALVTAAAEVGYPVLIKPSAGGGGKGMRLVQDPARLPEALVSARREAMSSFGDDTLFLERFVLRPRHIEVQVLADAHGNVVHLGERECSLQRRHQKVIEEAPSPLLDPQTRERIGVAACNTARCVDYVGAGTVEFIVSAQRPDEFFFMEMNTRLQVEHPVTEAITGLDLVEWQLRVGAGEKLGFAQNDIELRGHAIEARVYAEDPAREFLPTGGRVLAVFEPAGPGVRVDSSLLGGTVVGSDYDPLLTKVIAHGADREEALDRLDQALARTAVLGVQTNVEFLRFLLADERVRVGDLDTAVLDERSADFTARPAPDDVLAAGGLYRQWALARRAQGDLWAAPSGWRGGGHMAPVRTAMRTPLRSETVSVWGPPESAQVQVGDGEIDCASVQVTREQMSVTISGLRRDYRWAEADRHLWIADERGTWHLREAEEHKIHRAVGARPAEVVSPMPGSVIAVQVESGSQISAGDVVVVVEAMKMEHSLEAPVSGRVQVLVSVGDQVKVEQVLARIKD

M, tuberculosis = details: literature, Singhal A. et al., Science Translational Medicine 2014; cited from earlier work
[4] = FIG. 8 and 9, indicated concentrations, day 7

**Q.** With `O=C(c1c2ccccc2cc2ccccc12)N1CCC(N2CCC[C@@H](C(=O)N3CCOCC3)C2)CC1` [CP640.186] as the molecule, how does the “growth of Mycobacterium tuberculosis (Mtb) in liquid culture (fluorescence signal intensity at 528 nm)” value [1, 4] read?
**A.** does not affect growth

**Q.** What about the “viability of primary human macrophages (cell index, impedance)” value [2] of the same molecule?
**A.** does not affect the viability

**Q.** What about the “intracellular growth of Mycobacterium tuberculosis in primary human macrophages (CFU)” value ([3]; FIG. 4, 500 nM, one out of two experiments) of the same molecule?
**A.** dose-dependently reduces intracellular growth

**Q.** Which “inhibition of M. tuberculosis AccD5” value (M. tuberculosis AccD5) does the source give for `CC(Oc1ccc(Oc2ccc(Cl)cc2Cl)cc1)C(=O)O` (stereo not drawn) [Diclofop] here?
**A.** cannot be inhibited

**Q.** With `CC(Oc1ccc(Oc2ncc(C(F)(F)F)cc2Cl)cc1)C(=O)O` (stereo not drawn) [Haloxyfop] as the molecule, how does the “inhibition of M. tuberculosis AccD5” value (M. tuberculosis AccD5) read?
**A.** cannot be inhibited

**Q.** For `COc1cc(C(=O)N2CCC3(CC2)CC(=O)c2cc(-c4cncc(C(=O)O)c4)ccc2O3)cc2c1c(C)cn2C1CC1` [MK-4074], which “growth of Mycobacterium tuberculosis (Mtb) in liquid culture (fluorescence signal intensity at 528 nm)” value [1, 4] is on record?
**A.** do not affect growth

**Q.** For `CN(C)C(=N)N=C(N)N` [Metformin], which “intracellular growth of M. tuberculosis” value (M, tuberculosis) is on record?
**A.** reducing the intracellular growth

**Q.** Which “growth of Mycobacterium tuberculosis (Mtb) in liquid culture (fluorescence signal intensity at 528 nm)” value [1, 4] does the source give for `COc1ccccc1[C@H](Cn1c(=O)n(C(C)(C)C(N)=O)c(=O)c2c(C)c(-c3ncco3)sc21)OC1CCOCC1` [ND-646] here?
**A.** do not affect growth

**Q.** With `CC(=O)NC(C)c1cnc(-c2cnc(Oc3ccc(OC(C)C)cc3)s2)s1` (stereo not drawn) [ab142090, N-(1-(2′-(4-isopropoxyphenoxy)-2,5′-bithiazol5-yl)ethyl)Acetamide] as the molecule, how does the “growth of Mycobacterium tuberculosis (Mtb) in liquid culture (fluorescence signal intensity at 528 nm)” value ([1]; FIG. 1, indicated concentrations and time points, two independent experiments) read?
**A.** does not affect the growth

**Q.** What about the “viability of primary human macrophages (cell index, impedance)” value [2] of the same molecule?
**A.** does not affect the viability

**Q.** And the “intracellular growth of Mycobacterium tuberculosis in primary human macrophages (CFU)” value ([3]; FIG. 2, 100 nM, three donors)?
**A.** dose-dependently reduces intracellular growth

**Q.** And the “intracellular growth of Mycobacterium tuberculosis in primary human macrophages (CFU), combination with antibiotics” value ([3]; FIG. 3, 100 nM or 300 nM in combination with rifampicin or isoniazid in suboptimal concentrations, three donors)?
**A.** reduces intracellular growth
